Reference: publication PMC8176454, “Synthesis and Assessment of Novel Probes for Imaging Tau Pathology in Transgenic Mouse and Rat Models” (ACS Chemical Neuroscience, 2021)
Entries after “also recorded” stand apart in the source; their conditions may differ.

Assays:
[1] = target: T1, tau aggregates in brain of P301S tau mice (Homo sapiens, UniProt P10636, P618S); assay: Ex vivo mouse study: i.v. injection, brain sections imaged after 1 h; type: in vivo
T1 construct: from tissue; host or cells: brain of transgenic P301S tau mice (C57Bl/6 background)
T1 sequence (P10636 1-383 isoform P10636-6 P243S): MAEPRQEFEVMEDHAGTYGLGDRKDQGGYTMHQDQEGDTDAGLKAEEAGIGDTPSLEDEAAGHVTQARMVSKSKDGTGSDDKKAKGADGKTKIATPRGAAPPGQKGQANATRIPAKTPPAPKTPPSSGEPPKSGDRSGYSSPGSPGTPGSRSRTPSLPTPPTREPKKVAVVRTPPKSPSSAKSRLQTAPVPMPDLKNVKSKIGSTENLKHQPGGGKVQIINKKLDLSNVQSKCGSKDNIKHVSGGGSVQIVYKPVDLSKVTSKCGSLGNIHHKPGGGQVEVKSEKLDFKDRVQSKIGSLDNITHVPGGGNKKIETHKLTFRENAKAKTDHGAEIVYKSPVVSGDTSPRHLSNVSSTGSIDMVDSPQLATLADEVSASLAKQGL
Method: We next looked at the ability of LM229 to cross the blood–brain barrier (BBB), a key property of any viable neuro-radiotracer. LM229 was injected intravenously (i.v.) (1 mg/kg weight), and after 1 h, WT and P301S tau mice were perfused-fixed and brain sections were imaged under a fluorescence microscope. […] However, we await a comparison of PBB3 and LM229 by PET imaging to determine their relativity properties as in vivo imaging probes.
Mice were injected intravenously (i.v.) with 50 μM LM229 or PBB3 (DMSO) diluted in 50:50 ethanol/PBS. Animals were then perfused (4% PFA) 1 h post-i.v.

[2] = target: tau (AT8) in AD frontal cortex sections (Homo sapiens, UniProt P10636); assay: Staining of post-mortem AD frontal cortex sections, tau
Sequence of tau (AT8) in AD frontal cortex sections (P10636 623-708 limits assumed): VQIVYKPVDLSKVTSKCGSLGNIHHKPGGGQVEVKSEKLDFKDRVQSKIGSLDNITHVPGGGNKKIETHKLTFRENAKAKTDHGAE
Method: To further validate LM229 as a potential radiotracer for translational research, we investigated its binding to tau aggregates in human globus pallidus/putamen from progressive supranuclear palsy (PSP) subjects (Figure 7) and its selectivity for tau over β-amyloid pathology in AD frontal cortex sections (Figure 8).
In slices from frontal cortex of AD brains, LM229 gave rise to strong signal (Figure 8A), which colocalized with AT8 immunofluorescence (Figure 8B). […]
buffer) for 1 h at room temperature. Following 3 washes in PBS/0.1% Triton X-100, 50 µM LM229 (diluted in 1:1 blocking buffer/ethanol) was then added for 1 h at room temperature. Nuclei were stained with DAPI (0.1mg/ml for 10 min), washed and tissues mounted in FluorSaveTM prior to analysis using fluorescence […]
Binding affinity of all compounds with tau fibrils
Microscale Thermophoresis was first used to screen whether there were interaction between the compounds and tau fibrils. For this procedure 200 µL, 5 µM tau fibrils were mixed with 200 µL, 10 µM NT647-NHS dye and then incubated in dark for 30 minutes. Further dialysis (18 hours, changing the buffer after the first 4 hours) was used to remove the free dye giving a 2.5 µM solution of label led protein. […] With each compound, two concentrations (1µM and 1nM) were used to mix with 100nM tau fibrils and then loaded to the MST instrument to read out the MST data curve. […]

[3] = target: T2, tau inclusions in brain sections from transgenic P301S tau mice (human 0N4R tau) (Homo sapiens, UniProt P10636, P618S); assay: In vitro fluorescence microscopy of binding to transgenic P301S tau mouse brain sections
T2 construct: from tissue; host or cells: brain of transgenic P301S tau mice (C57Bl/6 background)
T2 sequence (P10636 1-383 isoform P10636-6 P243S): as the sequence (P10636 1-383 isoform P10636-6 P243S) above
Method: We then screened all of the compounds for their binding to tau inclusions in brain sections from transgenic P301S tau mice, which express the shortest isoform (0N4R) of human 4-repeat (4R) tau,[18] using their autofluorescence properties to rapidly analyze their binding.
Mice were perfused with PBS followed by 4% PFA. Following 24 h in 4% PFA, the brains were transferred to 20% sucrose prior to being embedded in OCT for cryo-sectioning. Sections (14 μm) were incubated with 50 μM LM229 or PBB3 for 1 h, washed in PBS + 0.1% Triton X-100, and cover-slipped with Vectashield mounting medium. Sections were imaged using a Leica DM6000 microscope. Mouse monoclonal AT8 (MN1020) or AT100 (MN1060) were from ThermoFisher and used at 1:1000. Anti-mouse secondary antibody was conjugated to AlexaFluor647.

[4] = target: T3, heparin-induced synthetic recombinant tau fibrils (tau-441 human) (Homo sapiens, UniProt P10636); assay: Fluorescence quenching assay of compound binding to heparin-induced synthetic recombinant tau fibrils; conditions: read-out: Kd of compound binding to heparin-induced synthetic tau fibrils determined by fluorimetry
T3 construct: purchased Eurogentec
T3 sequence (P10636 1-441 isoform P10636-8): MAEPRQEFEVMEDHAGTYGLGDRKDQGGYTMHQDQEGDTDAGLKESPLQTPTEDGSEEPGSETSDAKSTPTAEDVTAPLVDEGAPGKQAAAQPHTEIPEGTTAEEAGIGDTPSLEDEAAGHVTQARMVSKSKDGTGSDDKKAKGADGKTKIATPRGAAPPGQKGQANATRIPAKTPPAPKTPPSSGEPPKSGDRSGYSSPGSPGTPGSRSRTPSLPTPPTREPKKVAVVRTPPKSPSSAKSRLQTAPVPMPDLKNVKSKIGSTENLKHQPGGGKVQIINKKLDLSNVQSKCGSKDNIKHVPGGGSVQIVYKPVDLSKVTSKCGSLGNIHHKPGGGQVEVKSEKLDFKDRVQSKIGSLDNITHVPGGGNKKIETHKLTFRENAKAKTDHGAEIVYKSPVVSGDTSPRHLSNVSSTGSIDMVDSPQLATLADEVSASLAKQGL
Method: All compounds were assessed for their ability to bind to synthetic recombinant tau fibrils using a fluorescence quenching assay[20] […] Binding affinities for some compounds (141, 164, 166, 169, 171, and 207) could not be assessed with this assay because of negligible changes in fluorescence intensity. […] This compound was then selected for further characterization and development.
All reagents and solvents were used as supplied or purified using standard procedures as necessary. Analytical separation was conducted on an Ultimate 3000 HPLC system (Thermo Scientific). [^11C]CO2 was produced via the ^14N(p,α) nuclear reaction using GE PETtrace cyclotron applying 16.5 MeV protons onto 0.5% oxygen in nitrogen gas. [^11C]Methyl iodide was synthesized on a GE Medical Systems MeI MicroLab. A F-4500 FL spectrophotometer (Chemical Engineering department, University of Cambridge) was used to do fluorescence scan of all of the compounds mixed with tau fibrils. Excitation wavelength was 365 nm, and emission was scanned from 400 to 600 nm. With parameters, setting excitation slit was 5.0 nm, emission slit was 20.0 nm, PMT voltage was 950 V, and response was 0.5 s.
Monomeric tau (tau-441 human) lyophilized powder was obtained from Eurogentec. Tau monomers (100 μM) were prepared in 20 mM BES buffer (pH 7.4 with 25 mM NaCl and 2 mM dithiothreitol and incubated at 56 °C for 10 min. After being cooled to room temperature in a water bath, heparin (25 μM) and a protease inhibitor mix were added and incubated at 37 °C for 10 days. […]
Binding affinity of all compounds with tau fibrils […]
All other compounds binding affinit ies towards tau fibrils
were then tested by fluorescent binding assay. […]

Blood–brain barrier crossing ([1]; i.v. 1 mg/kg, 1 h, fluorescence microscopy): crosses the BBB | Signal on AD frontal cortex slices colocalized with AT8 [2]: strong signal | Binding to P301S tau mouse brain sections, 2 months of age ([3]; 2 months old mice): Rare binding | Binding to tau inclusions in P301S tau mouse brain sections ([3]; autofluorescence, co-staining with AT8 and AT100): intense, specific binding | Binding to WT mouse brain sections ([3]; brainstem sections from WT animals): No specific binding | Kd [4]: 3.6 nM
SMILES: CNc1ccc(/C=C/C=C/c2nc3cc(F)c(O)cc3s2)cn1 [LM229]
Ex vivo binding in P301S tau brain tissue ([1]; i.v. injection 1 h prior, colocalization with AT8): less non-specific binding and more specific binding to tau aggregates; also recorded: significant specific binding to tau aggregates | Binding to P301S tau mouse brain sections, 6 months of age ([3]; 6 months old mice): significant binding to large populations of neurons
